Experimental data taken from US9902986B2, “Enterobactin conjugates and uses thereof” (Massachusetts Institute of Technology, priority 2013, dated 2018).
Entries after “also recorded” stand apart in the source; their conditions may differ.

What was measured:
[1] = tested on: E. coli ATCC 33475 (ent-); assay type: cell-based, Escherichia coli
Experimental: General microbiology methods are as described herein or according to processes known in the art. […] Bacterial growth was assayed by measuring OD600 using a BioTek Synergy HT plate reader. Each well condition was prepared in duplicate and three independent replicates of each assay were conducted on different days. The resulting mean OD600 are reported and the error bars are the standard deviation of the mean obtained from the three independent replicates.
Three non-pathogenic E. coli strains were employed that are defective in enterobactin synthesis, enterobactin transport, or ferric enterobactin utilization in growth recovery assays. E. coli ATCC 33475 (ent-) cannot biosynthesize enterobactin, but retains the capacity to import and metabolize the siderophore.^71 E. coli H1187 (fepA-) lacks the outer membrane enterobactin receptor. E. coli K-12 JW0576 (fes-) can accumulate ferric enterobactin, but cannot release the iron because it is deficient in the enterobactin esterase Fes. As a result of these defects in iron metabolism, all three strains grow poorly under conditions of iron limitation.^71 The iron chelator 2,2′-dipyridyl (dipyridyl, DP) was used to generate iron-deficient conditions and promote expression of siderophore transport machinery in the growth recovery assays.

E. coli K-12 = test: Antimicrobial activity assay, E. coli K-12; assay type: cell-based, Escherichia coli; conditions: inhibition attributed to iron deprivation
Experimental: (§1) Overnight cultures of the bacterial strains were prepared by inoculating 5 mL of LB with the bacterial freezer stocks and the cultures were incubated at 37° C. in a tabletop incubator shaker set at 150 rpm. The overnight culture grew to saturation and was diluted 1:100 into 5 mL of fresh LB medium containing DP (200 μM) and incubated at 37° C. with shaking at 150 rpm until OD600 reached 0.6. The cultures were subsequently diluted to an OD600 value of 0.001 in 50% MHB medium (11.5 g/L) with or without DP (200 μM). No antibiotic marker was included in these cultures. A 90-μL aliquot of the diluted culture was combined with a 10-μL aliquot of a 10× solution of the tested compounds in a 96-well plate, which was wrapped in […] and incubated at 30° C. with shaking at 150 rpm for 19 h. Bacterial growth was determined by measuring OD600 using a BIOTEK SYNERGY HT plate reader. Each well condition was prepared in duplicate, and at least three independent replicates were conducted on different days. The resulting mean OD600 are reported and the error bars are the standard deviation.
In an exemplary experiment, antibacterial activities of the conjugates were tested against E. coli K-12 in 50% MHB at 30° C., t=19 h. 2,2′-dipyridyl (DP, 200 μM) was added to provide conditions of iron limitation.

E. coli CFT073 [2] = test: Antimicrobial activity assay, E. coli CFT073; assay type: cell-based, Escherichia coli; conditions: Fe(III)-loaded versus apo conjugates, 50% MHB, 200 μM DP, 30° C., t=19 h
Experimental: as §1
In another exemplary experiment, antibacterial activities of the conjugates were tested against E. coli CFT073 in 50% MHB at 30° C., t=19 h. DP (200 μM) was added to provide conditions of iron limitation.
In another exemplary experiment, antibacterial activities of Fe(III)-loaded or apo Ent-β-lactam conjugates (Ent-Amp and Ent-Amx) and their glucosylated derivatives (MGE-Amp, MGE-Amx, DGE-Amp, and DGE-Amx) against the uropathogenic strain E. coli CFT073 were tested in 50% MHB, 30° C., t=19 h. 2,2′-dipyridyl (DP, 200 μM) was added to provide conditions of iron limitation.

E. coli UTI89 = test: Competition assay with native siderophores, E. coli UTI89; assay type: cell-based, Escherichia coli; conditions: conjugate 100 nM, varied Ent, MGE or DGE, 50% MHB, 200 μM DP, 30° C., t=19 h
Experimental: Ent was synthesized following a literature procedure^55 and stored as DMSO stock solution at −20° C. MGE and DGE were prepared from Ent using MceC and IroB as described for MGE-PEG3-N3 and DGE-PEG3-N3.
(§2) In an exemplary experiment, select conjugates (Ent-Amp, MGE-Amp, and DGE-Amp) with select native siderophores (Ent, MGE, and DGE) were tested against the uropathogenic strain E. coli UTI89 in 50% MHB, t=19 h, 30° C. […] The concentration of the conjugates was fixed at 100 nM, and the concentration of the native siderophores was varied. […] These observations indicate that Ent, MGE, Ent-Amp, and MGE-Amp may enter via both FepA and IroN with different efficiency, but DGE and DGE-Amp may only enter via IroN.
as §2, with “In another” for “In an”, “100 nM” for “100 nM,”

E. coli CFT073 [3] = test: Competition assay with native siderophores, E. coli CFT073; assay type: cell-based, Escherichia coli; conditions: conjugate 100 nM, varied Ent, MGE or DGE, 50% MHB, 200 μM DP, 30° C., t=19 h
Experimental: These assays were performed following the general procedure described herein except that varying concentrations of Ent, MGE, or DGE, each of which was unmodified, were mixed with Ent-Amp, Ent-Amx, MGE-Amp, MGE-Amx, DGE-Amp, or DGE-Amx. Ent was synthesized following a literature procedure^55 and stored as DMSO stock solution at −20° C. MGE and DGE were prepared from Ent using MceC and IroB as described for MGE-PEG3-N3 and DGE-PEG3-N3.
(§3) In another exemplary experiment, select conjugates (Ent-Amp, MGE-Amp, and DGE-Amp) with select native siderophores (Ent, MGE, and DGE) were tested against the uropathogenic strain E. coli CFT073 in 50% MHB, t=19 h, 30° C. 2,2′-dipyridyl (DP, 200 μM) was added to provide conditions of iron limitation. The concentration of the conjugates was fixed at 100 nM and the concentration of the native siderophores was varied.
as §3, with “(Ent-Amx, MGE-Amx,” for “(Ent-Amp, MGE-Amp,”, “DGE-Amx)” for “DGE-Amp)”, “DP (200” for “2,2′-dipyridyl (DP, 200”

E. coli CFT073 [4] = test: Antimicrobial activity assay in the presence of lipocalin 2; assay type: cell-based, Escherichia coli; conditions: conjugate 100 nM, lcn2 1 μM, M9 minimal media, 37° C., 24 h
Experimental: The bacterial cultures were grown in modified M9 minimal medium (Blango, M. G.; Ott, E. M.; Erman, A.; Veranic, P.; Mulvey, M. A. Forced Resurgence and Targeting of Intracellular Uropathogenic Escherichia coli Reservoirs. PLoS One 2014, 9, e93327-e93335) (Na2HPO4 6.8 g/L, KH2PO4 3 g/L, NaCl 0.5 g/L, NH4Cl 1 g/L, 0.4% glucose, 2 mM MgSO4, 0.1 mM CaCl2, 0.2% casein amino acids, and 16.5 μg/mL of thiamine) overnight. […] The cultures were serially diluted to an OD600 value of 0.00001 in fresh modified M9 minimal medium. Lipocalin 2 (Lcn2) was diluted into PBS buffer to a concentration of 20 μM upon arrival and frozen at −20° C. until use. Bovine serum albumin (BSA, Sigma-Aldrich) was prepared in PBS buffer to achieve a concentration of 20 μM. […] The bacterial growth was determined by measuring OD600 using the plate reader. […] The resulting mean OD600 was reported, and the error bars were the standard deviation. […] In contrast, Lcn2 had no effect of the antibacterial activity of MGE-Amp, MGE-Amx, DGE-Amp, or DGE-Amx.

[5] = tested on: Salmonella enterica serovar Typhimurium (STM) IR715; test: Antibacterial activity assay, Salmonella Typhimurium; assay type: cell-based; conditions: 50% MHB, 100 μM 2,2′-dipyridyl, 30° C., t=19 h
Experimental: FIGS. 12A and 12B show exemplary antibacterial activities of Ent-Amp, Ent-Amx, MGE-Amp, MGE-Amx, DGE-Amp, and DGE-Amx against Salmonella enterica serovar Typhimurium (STM) IR715 (50% MHB with 100 μM 2,2′-dipyridyl to provide conditions of iron limitation, 30° C., t=19 h). (FIG. 12A) Antibacterial activity of Amp and the Amp-containing conjugates (Ent-Amp, MGE-Amp, and DGE-Amp). […] (FIG. 12B) Antibacterial activity of Amx and the Amx-containing conjugates (Ent-Amx, MGE-Amx, and DGE-Amx).

[6] = tested on: uropathogenic E. coli and non-pathogenic E. coli; test: Mixed culture assays (summary), uropathogenic and non-pathogenic E. coli; assay type: cell-based, Escherichia coli; conditions: uropathogenic with non-pathogenic E. coli
From the text: No antibiotic marker was included in these cultures.

various E. coli strains = test: Antibacterial activity against a panel of E. coli strains; assay type: cell-based, Escherichia coli; conditions: 6 strains of E. coli (K-12, B, H9049, 25922, UTI89, CFT073)
Experimental: as §1
Ampicillin and amoxicillin are β-lactam antibiotics that have periplasmic targets in Gram-negative bacteria and inhibit cell wall biosynthesis. The antibacterial activity of Ent-ampicillin and Ent-amoxicillin conjugates 44 and 45 was evaluated in vitro against a panel of Gram-negative and positive-bacteria.
Select Ent-β-lactam conjugates (Ent-Amp and Ent-Amx) and their glucosylated derivatives (MGE-Amp, MGE-Amx, DGE-Amp, and DGE-Amx) were tested against 6 strains of E. coli. Four of them are non-pathogenic strains, namely K-12, B, H9049, and 25922, and the other two are uropathogenic clinical isolates, namely UTI89 and CFT073.

O=C(NCCOCCOCCOCCC(=O)N1CCN(c2cc3c(cc2F)c(=O)c(C(=O)O)cn3C2CC2)CC1)c1cc(O)c(O)c(C(=O)N[C@H]2COC(=O)[C@@H](NC(=O)c3cccc(O)c3O)COC(=O)[C@@H](NC(=O)c3cccc(O)c3O)COC2=O)c1 [conjugate 35, 7-(4-(1-(3-(((3S,7S,11S)-7,11-Bis(2,3-dihydroxybenzamido)-2,6,10-trioxo-1,5,9-trioxacyclododecan-3-yl)carbamoyl)-4,5-dihydroxyphenyl)-1-oxo-5,8,11-trioxa-2-azatetradecan-14-oyl)piperazin-1-yl)-1-cyclopropyl-6-fluoro-4-oxo-1,4-dihydroquinoline-3-carboxylic acid]
effect on E. coli growth in the absence of DP [1]: concentration-dependent inhibition of E. coli growth

O=C(NCCCCCC(=O)N1CCN(c2cc3c(cc2F)c(=O)c(C(=O)O)cn3C2CC2)CC1)c1cc(O)c(O)c(C(=O)N[C@H]2COC(=O)[C@@H](NC(=O)c3cccc(O)c3O)COC(=O)[C@@H](NC(=O)c3cccc(O)c3O)COC2=O)c1 [conjugate 40, 7-(4-(6-(3-(((3S,7S,11S)-7,11-Bis(2,3-dihydroxybenzamido)-2,6,10-trioxo-1,5,9-trioxacyclododecan-3-yl)carbamoyl)-4,5-dihydroxybenzamido)hexanoyl)piperazin-yl)-1-cyclopropyl-6-fluoro-4-oxo-1,4-dihydroquinoline-3-carboxylic acid]
effect on E. coli growth in the absence of DP [1]: concentration-dependent inhibition of E. coli growth

CC1(C)SC2C(NC(=O)C(NC(=O)CCCc3cn(CCOCCOCCOCCNC(=O)c4cc(O)c(O)c(C(=O)NC5COC(=O)C(NC(=O)c6cc(C7OC(CO)C(O)C(O)C7O)cc(O)c6O)COC(=O)C(NC(=O)c6cccc(O)c6O)COC5=O)c4)nn3)c3ccc(O)cc3)C(=O)N2C1C(=O)O (stereo not drawn) [MGE-Amx]
concentrations at which E. coli K-12 was inhibited (E. coli K-12): micromolar concentrations
effect of preloading Fe(III) on antibacterial activity (E. coli CFT073 [2]): no effect
attenuation of antibacterial activity by native siderophores (E. coli UTI89): attenuated by Ent, MGE, or DGE
attenuation of antibacterial activity by native siderophores (E. coli CFT073 [3]): attenuated by Ent, MGE, or DGE
effect of lipocalin-2 (lcn2) on antibacterial activity (E. coli CFT073 [4]): unaffected; also recorded: no effect; also recorded: not attenuated
antibacterial activity relative to the unmodified antibiotic [5]: enhanced antibacterial activity relative to unmodified Amx
strain-specific growth inhibition in the mixed culture assays [6]: specifically inhibited the growth of the uropathogenic E. coli
antibacterial activity against uropathogenic compared to non-pathogenic E. coli (various E. coli strains): greater antibacterial activity against the uropathogenic E. coli compared to non-pathogenic E. coli

O=C(NCCOCCOCCOCCNC(=O)c1cc2cc3c4c(c2oc1=O)CCCN4CCC3)c1cc(O)c(O)c(C(=O)N[C@H]2COC(=O)[C@@H](NC(=O)c3cccc(O)c3O)COC(=O)[C@@H](NC(=O)c3cccc(O)c3O)COC2=O)c1 [conjugate 34, N^3-((3S,7S,11S)-7,11-Bis(2,3-dihydroxybenzamido)-2,6,10-trioxo-1,5,9-trioxacyclododecan-3-yl)-4,5-dihydroxy-N^1-(1-oxo-1-(11-oxo-2,3,5,6,7,1-hexahydro-1H-pyrano[2,3-f]pyrido[3,2,1-ij]quinolin-10-yl)-5,8,11-trioxa-2-azatridecan-13-yl)isophthalamide]
toxicity to E. coli ([1]; under iron limitation): no toxicity

CN[C@H](CC(C)C)C(=O)N[C@H]1C(=O)N[C@@H](CC(N)=O)C(=O)N[C@H]2C(=O)N[C@H]3C(=O)N[C@H](C(=O)N[C@H](C(=O)O)c4cc(O)cc(O)c4-c4cc3ccc4O)[C@H](O)c3ccc(c(Cl)c3)Oc3cc2cc(c3O[C@@H]2OC(CO)[C@@H](O)C(O)C2O[C@H]2CC(C)(N)[C@H](O)C(C)O2)Oc2ccc(cc2Cl)[C@H]1O (stereo partly drawn) [vancomycin, reference compound]
activity against E. coli ([1]; over the concentration range employed): inactive against E. coli
